Assays:
[1] = cited from earlier work
[2] = tested on: MC3T3-E1 pre-osteoblast cells
Excerpt: FIG. 14A is a graph showing in vitro testing with MC3T3-E1 pre-osteoblast cells to establish cytotoxicity of hydrogen peroxide.
FIG. 14B is a graph showing in vitro testing with MC3T3-E1 pre-osteoblast cells to establish cytotoxicity of ethyl pyruvate.
(§1) As shown in FIGS. 14A and 14B, in vitro cytotoxicity profiles were first established for H2O2 and ethyl pyruvate with MC3T3-E1 pre-osteoblast cells.

[3] = tested on: MC3T3-E1 cells; format: cell-based; settings: MC3T3-E1, + 1 mM H2O2
Excerpt: FIG. 14C is a graph showing a cell saving study capability test of released ethyl pyruvate and degraded ethyl pyruvate.
as §1

[4] = EPTK degradation and ethyl pyruvate release in H2O2 (NMR, HPLC); format: physicochemical
Excerpt: FIG. 13B is an NMR spectrum of the thioketal peak after three days of degradation in varying ROS concentrations
A new thioketal linker was synthesized containing the small molecule therapeutic ethyl pyruvate (FIG. 12).

CC(=O)[C@H]1CC[C@H]2[C@@H]3CCC4=CC(=O)CC[C@]4(C)[C@H]3CC[C@]12C [progesterone]
Log P [1]: 3.78

CCOC(=O)C(C)=O [ethyl pyruvate]
dose at which toxicity is displayed ([2]; mouse): ≥ 10 mM
protection of cells from oxidative toxicity [3]: robust protection

ethyl pyruvate thioketal [EPTK]
release of intact ethyl pyruvate ([4]; 200 mM H2O2 for 48 hrs, HPLC): intact ethyl pyruvate matching the original drug's character was released
degradation of thioketal bond ([4]; escalating doses of H2O2, NMR, three days): dose-dependent degradation
rate of ethyl pyruvate release ([4]; increasing doses of ROS): increased the rate of ethyl pyruvate release
protection of cells from oxidative toxicity [3]: some inherent antioxidant protection

Cc1ccc(C(=O)c2ccc(CC(=O)O)n2C)cc1 [tolmetin]
Log P [1]: 2.07

OO [H2O2, hydrogen peroxide]
cell death ([2]; dose of 1 mM, over 24 hrs, MC3T3-E1): ~50%
